Assay results taken from US20230176038A1, “Methods for Identifying Modulators of Insect Transient Receptor Potential Channels” (BASF Corporation, priority 2019, published 2023).

T1: complexes formed by Nanchung and Water witch proteins (Wtrw + Nan) (Drosophila melanogaster, UniProt Q9VHY7+Q9VUD5)
T1 construct: adenoviral co-expression in CHO-K1 cells, fluo-4 calcium FLIPR
T1 sequence (Q9VUD5 1-833): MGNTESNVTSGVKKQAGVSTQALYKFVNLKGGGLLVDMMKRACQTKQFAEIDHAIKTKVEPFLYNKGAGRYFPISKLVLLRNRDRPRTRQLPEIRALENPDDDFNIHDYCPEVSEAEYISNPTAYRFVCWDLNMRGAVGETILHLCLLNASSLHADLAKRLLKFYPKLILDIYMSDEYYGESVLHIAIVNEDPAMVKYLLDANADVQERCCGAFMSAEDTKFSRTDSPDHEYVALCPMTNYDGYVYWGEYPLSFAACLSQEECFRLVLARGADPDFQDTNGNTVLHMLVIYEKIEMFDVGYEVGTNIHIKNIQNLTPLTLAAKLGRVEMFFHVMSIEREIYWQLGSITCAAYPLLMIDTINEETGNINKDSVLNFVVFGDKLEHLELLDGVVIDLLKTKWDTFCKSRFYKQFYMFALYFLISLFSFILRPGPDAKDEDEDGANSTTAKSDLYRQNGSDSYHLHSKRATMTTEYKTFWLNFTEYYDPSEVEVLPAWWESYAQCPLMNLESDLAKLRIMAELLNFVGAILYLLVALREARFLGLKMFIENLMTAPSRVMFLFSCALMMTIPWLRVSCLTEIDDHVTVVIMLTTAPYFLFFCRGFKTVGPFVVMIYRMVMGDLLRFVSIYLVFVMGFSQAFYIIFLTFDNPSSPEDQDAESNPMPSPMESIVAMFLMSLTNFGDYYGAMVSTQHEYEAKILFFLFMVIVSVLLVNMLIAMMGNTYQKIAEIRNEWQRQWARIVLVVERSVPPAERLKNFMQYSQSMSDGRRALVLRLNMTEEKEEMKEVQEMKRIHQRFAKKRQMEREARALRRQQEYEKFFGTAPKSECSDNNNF
T1 sequence (Q9VHY7 1-986): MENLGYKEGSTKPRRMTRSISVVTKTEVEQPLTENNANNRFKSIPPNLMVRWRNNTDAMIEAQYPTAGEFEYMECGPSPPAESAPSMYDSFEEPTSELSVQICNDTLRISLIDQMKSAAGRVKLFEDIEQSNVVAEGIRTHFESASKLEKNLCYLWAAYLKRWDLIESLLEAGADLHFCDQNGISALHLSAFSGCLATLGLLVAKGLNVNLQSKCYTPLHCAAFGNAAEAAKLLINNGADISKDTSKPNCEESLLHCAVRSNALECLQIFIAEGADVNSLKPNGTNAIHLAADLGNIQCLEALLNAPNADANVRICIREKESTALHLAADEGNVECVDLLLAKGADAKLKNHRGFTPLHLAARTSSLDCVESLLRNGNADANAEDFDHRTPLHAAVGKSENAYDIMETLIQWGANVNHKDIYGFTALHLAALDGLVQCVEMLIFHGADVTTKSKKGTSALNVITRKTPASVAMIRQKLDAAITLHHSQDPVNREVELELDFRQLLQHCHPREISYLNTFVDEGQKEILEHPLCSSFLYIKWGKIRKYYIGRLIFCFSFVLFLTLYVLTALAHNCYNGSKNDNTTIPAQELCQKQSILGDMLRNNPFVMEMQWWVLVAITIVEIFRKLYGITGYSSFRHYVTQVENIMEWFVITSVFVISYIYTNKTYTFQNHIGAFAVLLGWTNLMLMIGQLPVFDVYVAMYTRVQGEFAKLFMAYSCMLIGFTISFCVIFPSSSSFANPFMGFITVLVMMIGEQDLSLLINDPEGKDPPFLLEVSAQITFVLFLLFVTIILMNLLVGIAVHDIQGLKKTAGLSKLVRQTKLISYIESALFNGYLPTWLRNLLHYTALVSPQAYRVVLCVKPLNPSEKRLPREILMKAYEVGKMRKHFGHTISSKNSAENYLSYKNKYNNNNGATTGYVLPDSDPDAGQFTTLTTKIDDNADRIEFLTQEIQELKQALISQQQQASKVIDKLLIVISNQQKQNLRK

T2: Drosophila melanogaster Water witch fused at its carboxyl terminus with FLAG tags and AcGFP fluorescent … (Drosophila melanogaster)
T2 construct: TRPA channel subunit expressed in hamster CHO-K1 cells by adenovirus; also called Wtrw-FLAG; FLAG-tagged Water witch; not shown: FLAG tags and AcGFP fused in-frame at the carboxyl terminus
T2 chain: T1 sequence (Q9VHY7 1-986)

B1: Drosophila melanogaster Nanchung fused at its carboxyl terminus with HA tags and mCherry fluorescent protein (other)
chain: T1 sequence (Q9VUD5 1-833)
notes: TRPV channel subunit expressed in hamster CHO-K1 cells by adenovirus; For the co-immunoprecipitation the cells were lysed in Triton X-100 buffer; also called Nan-HA; HA-tagged Nanchung; not shown: HA tags and mCherry fused in-frame at the carboxyl terminus

Columns and labels:
[1] = test system: Nanchung and Water witch (Nan + Wtrw) complexes; test: Calcium mobilization (fluo-4, FLIPR) in CHO-K1 cells co-expressing Nanchung and Water witch; details: for Ca2+ mobilization response: CHO-K1 cells co-expressing Nanchung and Water witch
Excerpt: (§1) DNAs encoding for tagged TRP channels were delivered into CHO-K1 cells using adenoviruses. Adenovirus-mediated gene delivery allowed for expression of the gene of interest, optimize expression levels and stoichiometry of subunits, as well as prevention of possible toxic effects of insect TRP channels by maintaining virus-infected cells at room temperature.
(§2) To test the hypothesis that Water witch may also be involved in the action of PM and AP, Water witch was expressed in CHO-K1 cells either alone or in combination with Nanchung. Given that TRP channels are permeable for Ca2+, cell responces were measured by monitoring Ca2+ mobilization using Ca2+ sensitive fluorescent probe FLUO4.
(§3) Hamster CHO-K1 cells (ATCC ® CCL-61TM) were infected with adenoviruses expressing TRP channels individually or in combinations. The cells were kept overnight at 37° C., followed by 3 days at 25° C. The medium was changed two days after seeding. Calcium mobilization was detected using fluorescent calcium probe fluo-4AM (Life Technologies) and measured by FLIPR-TETRA instrument (Molecular Devices, Sunnyvale, CA). The cells were loaded with 50 µl of Hank’s buffered salt solution (HBSS) containing 4 µM fluo-4AM, 5 mM probenecid, 20 mM CaCl2, and 0.02% pluoronic for 2 hours at 25° C. The dye was then discarded, 50 µl of HBSS were added. The test compounds were dissolved in DMSO and added to the cells in 50 µl HBSS, yielding a final DMSO concentration of 0.2%. Fluorescence was monitored for 10 minutes at 1 second intervals at 470-495 nm/515-575 nm excitation/emission wavelengths. EC50 values were calculated using GraphPad Prism (GraphPad Software).

[2] = test system: Water witch (Wtrw); test: Calcium mobilization in CHO-K1 cells expressing Water witch alone; details: CHO-K1 cells expressing Water witch individually
Excerpt: as §1, §2, §3

[3] = test system: Nanchung and Inactive (Nan + Iav) complexes; test: Calcium mobilization in CHO-K1 cells co-expressing Nanchung and Inactive; type: cell-based, Drosophila melanogaster
[4] = test system: parental mammalian cells (CHO-K1); test: Calcium mobilization in parental mammalian cells; type: cell-based, hamster; details: prior to infection
[5] = test system: Inactive and Water witch (Iav + Wtrw); test: Calcium mobilization in CHO-K1 cells co-expressing Inactive and Water witch; type: cell-based, Drosophila melanogaster
[6] = test system: Nanchung (Nan); test: Calcium mobilization in CHO-K1 cells expressing Nanchung alone; type: cell-based, Drosophila melanogaster; details: CHO-K1 cells expressing Nanchung individually
[7] = target: complexes formed by Nanchung protein and Water witch protein (Nan + Wtrw) (Drosophila melanogaster, UniProt A0ACM8PYI9); test: biochemical; type: binding; details: for Inhibition of binding of tritiated afidopyropen: membranes from cells co-expressing Nanchung and Water witch
[8] = test system: complexes formed by Nanchung protein and Inactive protein; test: [3H]-afidopyropen competition binding to membranes of cells co-expressing Nanchung and Inactive; design: species or system Drosophila melanogaster; details: membranes from cells co-expressing Nanchung and Inactive
[9] = test system: Nanchung (Nan); details: previously shown; cited from earlier work
[10] = test system: Water witch (Wtrw) protein alone; test: [3H]-afidopyropen saturation binding to membranes expressing Water witch alone; design: species or system Drosophila melanogaster
[11] = target: Nanchung (Nan) protein alone (Drosophila melanogaster, UniProt A0ACM8PYI9); test: [3H]-afidopyropen saturation binding to membranes of CHO-K1 cells expressing Nanchung alone; details: membranes from CHO-K1 cells expressing Nanchung individually; read-out: Kd, specific binding of tritium-labeled afidopyropen
[12] = target: T1, complexes formed by Nanchung and Water witch proteins (Wtrw + Nan); test: Calcium mobilization (fluo-4AM, FLIPR-TETRA) in CHO-K1 cells co-expressing Water witch and Nanchung; type: cell-based; details: FIG. 2B; hamster CHO-K1 cells, adenovirus; Wtrw (SEQ ID NO 63) C-terminal FLAG/AcGFP, Nan (SEQ ID NO 7) C-terminal HA/mCherry; fluo-4AM, 20 mM CaCl2, 0.2% DMSO, 10 min; read-out: Wtrw + Nan (Water witch:Nanchung complex) EC50 (calcium response)
[13] = target: T2, Drosophila melanogaster Water witch …; test: co-immunoprecipitation from lysates of adenovirus-transduced CHO-K1 cells; anti-FLAG M2 affinity gel, Western blot with anti-HA

Molecule | Ca2+ mobilization response [1] | Ca2+ mobilization response [2] | Ca2+ mobilization response [3] | Ca2+ mobilization response [4] | also measured
O=CC=Cc1ccccc1 [cinnamaldehyde] | efficiently activated | efficiently activated | not responsive | not in parental mammalian cells | Ca2+ mobilization response [5]: activation of Ca2+ mobilization; Ca2+ mobilization response [6]: nor in cells expressing Nancung (Nan)
NC(=O)c1cccnc1 [nicotinamide] | evoked Ca2+ response | not in the cells expressing these proteins individually | evoked Ca2+ response | not in parental mammalian cells | Potency and efficacy of activation, Nanchung:Inactive compared with Nanchung:Water witch complexes ([1]; dose response of calcium responses, FIG. 4B): nearly identical potency and efficacy; Inhibition of binding of tritiated afidopyropen [7]: completely inhibited binding; Inhibition of binding of tritiated afidopyropen [8]: completely inhibited binding
C[C@]1(COC(=O)C2CC2)[C@@H]2C[C@H](O)[C@@]3(C)Oc4cc(-c5cccnc5)oc(=O)c4[C@H](O)[C@@H]3[C@@]2(C)CC[C@@H]1OC(=O)C1CC1 [afidopyropen] | elicited calcium mobilization |  |  |  | Response of Nanchung alone to stimulation [9]: does not respond; Binding of tritiated afidopyropen [10]: negligible; Kd [7]: 0.048 nM; Kd [11]: 4.5 nM
N#CCNC(=O)c1cnccc1C(F)(F)F [flonicamid] | without effect |  |  |  | 
C[C@]1(COC(=O)C2CC2)[C@@H]2C[C@H](O)[C@@]3(C)Oc4cc(-c5cccnc5)oc(=O)c4[C@H](O)[C@@H]3[C@@]2(C)CC[C@@H]1OC(=O)C1CC1 [AP, afidopyropen] |  |  |  |  | EC50 [12]: 39 nM
CC1=NNC(=O)N(/N=C/c2cccnc2)C1 [pymetrozine] | elicited calcium mobilization |  |  |  | Response of Nanchung alone to stimulation [9]: does not respond; Inhibition of binding of tritiated afidopyropen [7]: completely inhibited binding; Inhibition of binding of tritiated afidopyropen [8]: completely inhibited binding
C=CCN=C=S [allyl isothiocyanate] | efficiently activated | efficiently activated | not responsive | not in parental mammalian cells | Ca2+ mobilization response [5]: activation of Ca2+ mobilization; Ca2+ mobilization response [6]: nor in cells expressing Nancung (Nan)
NC(=O)c1cnccc1C(F)(F)F [TFNA-AM, 4-trifluoronicotinamide] | without effect |  |  |  | 
B1 |  |  |  |  | binding result [13]: binds
